The experiment relates to metabolic enzymes and transporters. Kind of experiment: Expression of energy- and metabolism-related proteins in treated tumors (IHC, immunoblot). The class given is in vivo, human U-87MG in nude mice. The conditions noted are these: for VDAC1 staining: treated tumors vs strong staining in PBS/DMSO. The source says: Figure 5 VDAC1-based peptide-treated tumors show marked changes in the expression of energy- and metabolism-related enzymes Dissected tumors were subjected to immunohistochemistry as described in Experimental Procedures. A, B. Representative sections from PBS/DMSO- and Tf-D-LP4-TTs were IHC stained for Glut-1, HK-I, HK-II, GAPDH, LDH, VDAC1, CS, Complex IVc and ATP synthase 5a are presented. Sections were also hematoxylin-stained and visualized by microscopy. C. Tissue lysates obtained from controls and several Tf-D-LP4-TTs were immunoblotted for HK-I, HK-II, VDAC1, GAPDH, LDH, CS, and ATP synthase 5a. D. Quantitative analysis of immunoblots is shown (n=2-4).
Formalin-fixed, paraffin-embedded sections of control and peptide-TTs were hematoxylin-eosin stained, probed with appropriate antibodies via IHC staining or immunoblotting of cells and tissue extracts. […]
10 ml of aqueous solution containing 1% PVA (w/v). The software. These experimental protocols were approved by mixtures were stirred continuously at room temperature the Institutional Animal Care and Use Committee of Ben-until complete evaporation of the organic solvent. The Gurion University. […]
HBSS solution. Cells or tumor tissue were lysed using lysis buffer (50 mM Tris-HCl, pH 7.5, 150 mM NaCl, 1
Xenograft and intracranial-orthotopic mouse mM EDTA, 1.5 mM MgCl2, 10% glycerol, 1% Triton models X-100, supplemented with a protease inhibitor cocktail
(Calbiochem, UK). Cell lysates were then centrifuged at U-87MG glioblastoma cells (3 x106) were inoculated 600xg (10 min at 4°C) and samples (10-40 μg of protein) s.c. into the hind leg ﬂanks of athymic eight-week old were subjected to SDS-PAGE and immunoblotting male nude mice (Envigo). Thirteen days post-inoculation, using various primary antibodies (sources and dilutions tumor volume was measured and calculated (100-130 as detailed in supplementary Table 2), followed by mm3) and mice were randomized into three groups (5 the appropriate HRP-conjugated secondary antibodies mice/group). Each treatment substance was injected into (i.e., anti-mouse, anti-rabbit or anti-goat). Blots the established s,c. tumors using PBS containing 0.26% were developed using enhanced chemiluminescence DMSO or peptide in PBS, 0.26% DMSO/20 μM). The (Biological Industries). Band intensities were analyzed xenografts were injected 20 µl per tumor (2 points) every by densitometry using Multi Gauge software (Fujifilm) two days. Beginning on the day of inoculation, mouse and the values were normalized to the intensities of the weight and tumor volume were monitored twice a week appropriate β-actin signal that served as a loading control. for a period of 23 days using a digital caliper. At the end of the experiments, the mice were sacrificed, tumors were IHC of tumor tissue sections excised and ex vivo weight was determined. Half of each tumor was either fixed in 4% buffered formaldehyde, IHC staining was performed on 5 μm-thick paraffin-embedded and processed for IHC or frozen in formalin-fixed and paraffin-embedded tumor tissue liquid nitrogen for later immunoblot analysis. sections. The sections were deparaffinized by placing To generate an intracranial-orthotopic mouse model, the slides at 60°C for 1 h and using xylene. […]
(Stoelting, Wood Dale, IL). A middle incision was made c, cytochrome c oxidase subunit IVc, GAPDH, Glut1, on the skull and a burr hole was introduced 0.5 mm HK-II, Klf4, LDH, Nestin, NGFR, P53, SMAC/Diablo, anterior to the bregma and 2.5 mm lateral to the midline Sox2, S100b, VDAC1) was performed in 0.01 M citrate using a drill (Stoelting). A 31-gauge needle loaded with buffer (pH 6.0). For CD31, HK-I and Ki-67, antigen 10 µL PBS was used to deliver tumor cells. The needle retrieval was performed in 10 mM Tris-EDTA (pH 9) and tip was inserted into the brain 3 mm deep, relative to the 0.5 M Tris (pH 10), for 30 minutes each at 95-98°C. After […]

2 compounds from publication PMC5458211, “Mitochondrial VDAC1-based peptides: Attacking oncogenic properties in glioblastoma” (Oncotarget, 2017) can be followed below.

Molecules are shown by their SMILES. Non-standard residues stand in square brackets, D forms with d. Residues, ends and D or L forms follow the SMILES beside them.

Turning to `CC[C@@H](C)[C@@H](NC(=O)[C@@H](CCCCN)NC(=O)[C@H](NC(=O)[C@@H](CCC(N)=O)NC(=O)[C@@H](CCCNC(=N)N)NC(=O)[C@@H](CC(C)C)NC(=O)CNC(=O)[C@@H](Cc1ccccc1)NC(=O)CNC(=O)[C@@H](Cc1ccc(O)cc1)NC(=O)CNC(=O)[C@@H](CCCCN)NC(=O)[C@H](NC(=O)[C@@H](Cc1ccccc1)NC(=O)[C@H](NC(=O)[C@@H](CC(=O)O)NC(=O)[C@H](N)CCCNC(=N)N)C(C)C)[C@H](C)O)[C@H](C)CC)C(=O)N[C@H](Cc1c[nH]c2ccccc12)C(=O)N[C@H](Cc1ccccc1)C(=O)N[C@H](CCC(N)=O)C(=O)N[C@H](CC(N)=O)C(=O)N[C@H](CCCNC(=N)N)C(=O)N[C@H](CCCNC(=N)N)C(=O)N[C@H](CCSC)C(=O)N[C@H](CCCCN)C(=O)N[C@H](Cc1c[nH]c2ccccc12)C(=O)N[C@H](CCCCN)C(=O)N[C@H](CCCCN)C(=O)O` [D-ΔN-Ter-Antp] (H-[dR][dD][dV][dF][dT][dK]G[dY]G[dF]G[dL][dR][dQ][dI][dK][dI][dW][dF][dQ][dN][dR][dR][dM][dK][dW][dK][dK]-OH; N-terminus and C-terminus assumed), the VDAC1 staining entry is recorded as “only very weak staining”.

With `CC[C@H](C)[C@H](NC(=O)[C@H](C)NC(=O)[C@@H](N)Cc1c[nH]cn1)C(=O)N[C@@H](Cc1ccc(O)cc1)C(=O)N1CCC[C@H]1C(=O)N[C@@H](CCCNC(=N)N)C(=O)N[C@@H](Cc1c[nH]cn1)C(=O)N[C@@H](CO)C(=O)N[C@@H](Cc1c[nH]c2ccccc12)C(=O)N[C@H](C(=O)N[C@@H](Cc1c[nH]c2ccccc12)C(=O)N[C@@H](CCC(=O)O)C(=O)N[C@H](CCCCN)C(=O)N[C@H](CCCCN)C(=O)N[C@H](CC(C)C)C(=O)N[C@H](CCC(=O)O)C(=O)N[C@@H](C(=O)N[C@H](C)C(=O)N[C@@H](C(=O)N[C@H](CC(N)=O)C(=O)N[C@H](CC(C)C)C(=O)N[C@H](C)C(=O)N[C@H](Cc1c[nH]c2ccccc12)C(=O)N[C@@H](C(=O)N[C@H](C)C(=O)NCC(=O)N[C@H](CC(N)=O)C(=O)N[C@H](CO)C(=O)N[C@H](CC(N)=O)C(=O)N[C@@H](CCCCN)C(=O)N[C@@H](Cc1c[nH]c2ccccc12)C(=O)N[C@H](C(=O)N[C@@H](Cc1c[nH]c2ccccc12)C(=O)N[C@@H](CCCCN)C(=O)O)[C@@H](C)O)[C@H](C)O)C(C)C)[C@H](C)O)[C@@H](C)O` [Tf-D-LP4], the VDAC1 staining entry is “only very weak staining”. In addition, under “treated tumors vs PBS/DMSO”, the “ATP synthase subunit 5a expression” value is given as “markedly lower”, the GAPDH level entry was “dramatically lower”, the Glut-1 level result is listed as “dramatically lower” and the HK-I level result was “dramatically lower”. For the setting “treated tumors vs PBS/DMSO”, the HK-II level result is “dramatically lower”, the LDH level entry was “dramatically lower”, the “citrate synthase (CS) expression” value is reported as “markedly lower” and the “complex IVc expression” value is on record as “markedly lower”.
